In ChEMBL document CHEMBL4706617, “Pyrimido[1,2-b]indazole derivatives: Selective inhibitors of human monoamine oxidase B with neuroprotective activity” (Eur J Med Chem, 2021):
Active and inactive are the calls of the source. The calls are words filed in the database; no cut-off is given here.

Tests used:
[1] = target: T1, Amine oxidase [flavin-containing] A (Homo sapiens, UniProt P21397); assay: Inhibition of recombinant human MAO-A expressed in baculovirus infected BTI-TN-5B1-4 insect cells using p-tyramine as substrate preincubated for 15 mins followed by substrate addition and measured over 20 mins by horse-radish peroxidase/Amplex Red coupled fluorimetric analysis
T1 sequence (P21397 whole entry): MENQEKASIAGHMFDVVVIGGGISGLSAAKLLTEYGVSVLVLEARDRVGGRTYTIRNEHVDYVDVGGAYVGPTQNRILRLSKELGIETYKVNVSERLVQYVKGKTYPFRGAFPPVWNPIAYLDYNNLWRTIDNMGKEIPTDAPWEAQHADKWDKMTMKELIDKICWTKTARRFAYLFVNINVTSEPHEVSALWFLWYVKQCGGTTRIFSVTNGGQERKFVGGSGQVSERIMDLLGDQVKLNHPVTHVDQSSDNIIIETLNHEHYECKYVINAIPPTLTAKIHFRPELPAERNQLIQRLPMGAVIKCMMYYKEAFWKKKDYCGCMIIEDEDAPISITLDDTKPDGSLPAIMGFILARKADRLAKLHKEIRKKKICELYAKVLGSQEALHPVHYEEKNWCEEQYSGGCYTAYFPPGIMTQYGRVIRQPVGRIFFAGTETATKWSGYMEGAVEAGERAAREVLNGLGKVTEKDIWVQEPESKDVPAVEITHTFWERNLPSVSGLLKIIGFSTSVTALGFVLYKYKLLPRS

[2] = target: T2, Amine oxidase [flavin-containing] B (Homo sapiens, UniProt P27338); assay: biochemical; type: cell-based, BTI-TN-5B1-4
T2 sequence (P27338 whole entry): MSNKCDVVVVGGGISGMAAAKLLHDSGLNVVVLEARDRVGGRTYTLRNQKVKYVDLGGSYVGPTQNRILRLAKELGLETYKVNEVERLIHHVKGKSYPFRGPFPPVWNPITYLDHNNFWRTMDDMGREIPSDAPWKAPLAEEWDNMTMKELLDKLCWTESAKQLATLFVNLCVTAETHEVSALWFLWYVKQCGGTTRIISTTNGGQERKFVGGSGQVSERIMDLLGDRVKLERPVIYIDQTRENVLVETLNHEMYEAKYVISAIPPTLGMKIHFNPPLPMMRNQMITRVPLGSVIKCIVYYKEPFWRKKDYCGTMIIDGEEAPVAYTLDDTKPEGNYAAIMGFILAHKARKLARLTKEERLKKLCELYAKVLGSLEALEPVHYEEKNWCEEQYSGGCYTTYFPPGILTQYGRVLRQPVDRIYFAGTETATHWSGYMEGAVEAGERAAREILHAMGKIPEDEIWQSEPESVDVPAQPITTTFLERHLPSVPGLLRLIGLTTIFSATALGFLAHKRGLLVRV
Description: Inhibition of recombinant human MAO-B expressed in baculovirus infected BTI-TN-5B1-4 insect cells using p-tyramine as substrate preincubated for 15 mins followed by substrate addition and measured over 20 mins by horse-radish peroxidase/Amplex Red coupled fluorimetric analysis

[3] = target: T2, Amine oxidase [flavin-containing] B; assay: Competitive inhibition of recombinant human MAO-B expressed in baculovirus infected BTI-TN-5B1-4 insect cells using varying level of p-tyramine as substrate by Lineweaver-Burk plot analysis
SH-SY5Y [4] = assay: Cytotoxicity against human SH-SY5Y cells assessed as reduction in metabolic activity up to 20 uM incubated for 24 hrs by MTS assay; type: ADME, cell-based
SH-SY5Y [5] = assay: Neuroprotective activity against 6-OHDA-induced cell death in human SH-SY5Y cells at 1 uM preincubated for 1 hr followed by 6-OHDA stimulation for 24 hrs by 7AAD staining based flow cytometric analysis; type: functional; conditions: time 25.0 hrs
SH-SY5Y [6] = assay: Cytotoxicity against human SH-SY5Y cells assessed as reduction in metabolic activity at 50 to 100 uM incubated for 24 hrs by MTS assay; type: ADME, cell-based; conditions: dose 50-100 µM
[7] = Cytotoxicity against human SH-SY5Y cells assessed as metabolic activity up to 100 uM incubated for 24 hrs by MTS assay relative to control; type: ADME, cell-based; conditions: read-out: Activity

Compound | IC50 [1] [µM] | IC50 [2] [µM] | Ki [3] [µM] | Activity (SH-SY5Y [4]) | Activity (SH-SY5Y [5]) | Activity (SH-SY5Y [6]) | viability at 24 h [7] [%]
COc1cccc(-c2cnc3c4cccnc4nn3c2)c1 | > 100 | 0.397 | – | – | – | – | –
Brc1cnc2c3ncccc3nn2c1 | > 100 | > 100 | – | – | – | – | –
Brc1ccc2nn3cc(Br)cnc3c2c1 | > 100 | > 100 | – | – | – | – | –
COc1ccc2c3c([nH]c2c1)C(C)=NCC3 [HARMALINE] | 0.0329 | > 100 | – | – | – | – | –
COc1ccc(-c2cnc3c4ncccc4nn3c2)cc1 | > 100 | 0.236 | 0.107 | Non-Toxic | Active | Toxic | –
FC(F)(F)c1cccc(-c2cnc3c4cccnc4nn3c2)c1 | > 100 | 1.02 | – | – | – | – | –
COc1ccc(-c2cnc3c4nccnc4nn3c2)cc1 | > 100 | 1.25 | – | – | – | – | –
COc1ccccc1-c1cnc2c3cccnc3nn2c1 | > 100 | 3.79 | – | – | – | – | –
CCOC(=O)c1ccc(-c2cnc3c4cccnc4nn3c2)cc1 | > 100 | 0.822 | – | – | – | – | –
FC(F)(F)c1ccc2c(c1)nn1cc(Br)cnc21 | > 100 | 1.17 | – | – | – | – | –
COc1ccc(-c2cnc3c4ccccc4nn3c2)cc1 | > 100 | 0.215 | – | Non-Toxic | – | Toxic | –
Fc1ccc(-c2cnc3c4cccnc4nn3c2)cn1 | > 100 | > 100 | – | – | – | – | –
COc1ccc(-c2cnc3c4c(F)cccc4nn3c2)cc1 | > 100 | 0.062 | 0.0337 | – | – | – | > 85
CSc1ccc(-c2cnc3c4ccccc4nn3c2)cc1 | > 100 | 0.065 | 0.0247 | Non-Toxic | – | – | > 85
Clc1cccc2nn3cc(Br)cnc3c12 | > 100 | > 100 | – | – | – | – | –
Brc1cnc2c3ccccc3nn2c1 | > 100 | > 100 | – | – | – | – | –

Compound | IC50 [1] [µM] | IC50 [2] [µM] | Ki [3] [µM] | Activity (SH-SY5Y [4]) | Activity (SH-SY5Y [5]) | Activity (SH-SY5Y [6]) | viability at 24 h [7] [%]
Brc1ccc2c(c1)nn1cc(Br)cnc21 | > 100 | > 100 | – | – | – | – | –
CCOC(=O)c1ccccc1-c1cnc2c3nccnc3nn2c1 | > 100 | > 100 | – | – | – | – | –
Brc1cnc2c3nccnc3nn2c1 | > 100 | > 100 | – | – | – | – | –
Fc1cccc2nn3cc(Br)cnc3c12 | > 100 | > 100 | – | – | – | – | –
Brc1cnc2c3cccnc3nn2c1 | > 100 | > 100 | – | – | – | – | –
O=[N+]([O-])c1ccc2nn3cc(Br)cnc3c2c1 | > 100 | > 100 | – | – | – | – | –
c1ccc(-c2cnc3c4ncccc4nn3c2)cc1 | > 100 | 88.3 | – | – | – | – | –
COc1ccc(-c2cnc3c4cccnc4nn3c2)cc1 | > 100 | 0.818 | – | – | – | – | –
c1csc(-c2cnc3c4cccnc4nn3c2)c1 | > 100 | 4.48 | – | – | – | – | –
CS(=O)(=O)c1ccc(-c2cnc3c4cccnc4nn3c2)cc1 | > 100 | 5.7 | – | – | – | – | –
CC(=O)c1ccc(-c2cnc3c4cccnc4nn3c2)cc1 | > 100 | 0.13 | 0.0765 | Non-Toxic | Active | – | > 85
c1cnc2c(c1)nn1cc(-c3ccsc3)cnc21 | > 100 | 14.8 | – | – | – | – | –
C(=C\c1cnc2c3cccnc3nn2c1)/c1ccccc1 | > 100 | 0.837 | – | – | – | – | –
COc1ccc(-c2cnc3c4c(Cl)cccc4nn3c2)cc1 | > 100 | 0.132 | – | – | – | Toxic | –
Fc1ncccc1-c1cnc2c3ccccc3nn2c1 | 21.1 | 0.648 | – | – | – | – | –
